The values below come from ChEMBL document CHEMBL1139605, “Novel ketal ligands for the glucocorticoid receptor: in vitro and in vivo activity” (Bioorg Med Chem Lett, 2005).

For data set [1], the species on record is Mus musculus. The data set can be described thus: Effective concentration required for inhibition of interleukin-6 in mouse thioglycolate-elicited peritoneal exudate cell line using 72% radiolabeled Dexamethasone. Format: functional.
The subject of data set [2] is A549. Description: Effective concentration for inhibition of interleukin-6 in human A549 lung carcinoma cell line using 58% radiolabeled Dexamethasone. Format: functional, cell-based.
The target in data set [3] is T1, Glucocorticoid receptor (Homo sapiens, UniProt P04150).
T1 sequence (P04150 whole entry): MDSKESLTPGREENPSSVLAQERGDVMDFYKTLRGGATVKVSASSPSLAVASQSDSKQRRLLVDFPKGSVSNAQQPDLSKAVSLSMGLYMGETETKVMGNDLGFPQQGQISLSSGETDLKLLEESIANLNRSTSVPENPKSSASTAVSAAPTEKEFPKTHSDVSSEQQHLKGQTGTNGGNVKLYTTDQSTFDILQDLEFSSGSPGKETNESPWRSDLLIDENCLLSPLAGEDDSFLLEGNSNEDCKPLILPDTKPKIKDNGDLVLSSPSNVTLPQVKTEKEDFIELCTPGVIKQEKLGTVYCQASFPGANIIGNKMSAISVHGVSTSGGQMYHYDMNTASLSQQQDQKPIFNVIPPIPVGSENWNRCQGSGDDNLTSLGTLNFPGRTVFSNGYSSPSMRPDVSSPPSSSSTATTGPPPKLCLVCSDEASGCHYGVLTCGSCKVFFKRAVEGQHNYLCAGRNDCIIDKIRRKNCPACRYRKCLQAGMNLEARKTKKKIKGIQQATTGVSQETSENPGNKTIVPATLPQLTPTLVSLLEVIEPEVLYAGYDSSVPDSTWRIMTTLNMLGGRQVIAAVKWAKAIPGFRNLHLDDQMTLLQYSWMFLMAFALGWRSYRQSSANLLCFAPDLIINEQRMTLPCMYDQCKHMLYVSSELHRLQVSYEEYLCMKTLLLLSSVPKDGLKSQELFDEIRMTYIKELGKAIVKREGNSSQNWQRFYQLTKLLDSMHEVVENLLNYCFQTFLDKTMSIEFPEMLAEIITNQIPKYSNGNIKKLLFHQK
Description: Inhibition of human glucocorticoid receptor alpha isoform.

Data set [4] deals with A549. Description: Effective concentration for inhibition of interleukin-6 in human A549 lung carcinoma cell line using 46% radiolabeled Dexamethasone. It counts as functional, cell-based.
Data set [5] has as its system A549. Description: Effective concentration for inhibition of interleukin-6 in human A549 lung carcinoma cell line using 35% radiolabeled Dexamethasone. Format: functional, cell-based.
The species entered for data set [6] is Mus musculus. Description: Effective concentration required for inhibition of interleukin-6 in mouse thioglycolate-elicited peritoneal exudate cell line using 56% radiolabeled Dexamethasone. It counts as functional.
A further data set deals with T2, Estrogen receptor (Homo sapiens, UniProt P03372).
T2 sequence (P03372 whole entry): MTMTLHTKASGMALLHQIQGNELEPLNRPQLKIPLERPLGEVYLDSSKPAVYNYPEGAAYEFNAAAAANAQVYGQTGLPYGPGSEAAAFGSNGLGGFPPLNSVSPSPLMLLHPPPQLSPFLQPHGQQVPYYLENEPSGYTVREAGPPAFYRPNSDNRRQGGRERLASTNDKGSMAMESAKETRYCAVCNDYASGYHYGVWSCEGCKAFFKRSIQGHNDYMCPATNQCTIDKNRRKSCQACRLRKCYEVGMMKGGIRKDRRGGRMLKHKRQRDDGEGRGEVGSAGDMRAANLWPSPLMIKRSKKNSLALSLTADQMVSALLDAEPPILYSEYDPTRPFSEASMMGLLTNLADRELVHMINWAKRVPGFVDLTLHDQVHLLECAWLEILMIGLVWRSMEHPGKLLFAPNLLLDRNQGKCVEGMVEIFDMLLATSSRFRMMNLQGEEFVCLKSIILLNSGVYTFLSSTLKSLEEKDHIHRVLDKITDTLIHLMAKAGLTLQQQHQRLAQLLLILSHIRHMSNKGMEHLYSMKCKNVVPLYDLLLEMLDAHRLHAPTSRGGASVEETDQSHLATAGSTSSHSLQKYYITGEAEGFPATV
Description: Binding affinity for human estrogen receptor alpha.

Data set [7] has as its target T1, Glucocorticoid receptor. The data set can be described thus: Binding affinity for human glucocorticoid receptor.
Data set [8] in a line: Clearance data in mouse at 2 mg/kg i.v. administration. Format: ADME, organism-based. More on the design: dose 2 mg/kg, route intravenous. The note with it: in vivo, iv.
The target of a further data set is Estrogen receptor beta (Homo sapiens, UniProt Q92731). The data set can be described thus: Binding affinity for human estrogen receptor beta.
The nature of data set [9]: Half life time in mouse at 2 mg/kg i.v. administration. It counts as ADME, organism-based. More on the design: dose 2 mg/kg, route intravenous. The note with it: in vivo, iv.
Data set [10] can be described thus: Volume of distribution in mouse at 2 mg/kg i.v. administration. It counts as ADME, organism-based. Set-up: dose 2 mg/kg, route intravenous. To be noted: in vivo, iv, read-out: Volume of distribution.
For data set [11], the species on record is Mus musculus. Description: Effective concentration required for interleukin-6 transrepression in peritoneal exudate cells of C57B1/6 mouse using 56% Dexamethasone. It counts as functional, cell-based.
The nature of data set [12]: Bioavailability in mouse (dose 10 mg/kg p.o.). Format: ADME, organism-based. The note with it: in vivo, po.
The test system of data set [13] is Mus musculus. Description: Inhibition of LPS induced TNF-alpha secretion in mouse at an oral dose of 30 mg/kg relative to that produced by Dexamethasone at a dose of 0.3 mg/kg. Format: functional.
The target of data set [14] is T3, Mineralocorticoid receptor (Rattus norvegicus, UniProt P22199).
T3 sequence (P22199 whole entry): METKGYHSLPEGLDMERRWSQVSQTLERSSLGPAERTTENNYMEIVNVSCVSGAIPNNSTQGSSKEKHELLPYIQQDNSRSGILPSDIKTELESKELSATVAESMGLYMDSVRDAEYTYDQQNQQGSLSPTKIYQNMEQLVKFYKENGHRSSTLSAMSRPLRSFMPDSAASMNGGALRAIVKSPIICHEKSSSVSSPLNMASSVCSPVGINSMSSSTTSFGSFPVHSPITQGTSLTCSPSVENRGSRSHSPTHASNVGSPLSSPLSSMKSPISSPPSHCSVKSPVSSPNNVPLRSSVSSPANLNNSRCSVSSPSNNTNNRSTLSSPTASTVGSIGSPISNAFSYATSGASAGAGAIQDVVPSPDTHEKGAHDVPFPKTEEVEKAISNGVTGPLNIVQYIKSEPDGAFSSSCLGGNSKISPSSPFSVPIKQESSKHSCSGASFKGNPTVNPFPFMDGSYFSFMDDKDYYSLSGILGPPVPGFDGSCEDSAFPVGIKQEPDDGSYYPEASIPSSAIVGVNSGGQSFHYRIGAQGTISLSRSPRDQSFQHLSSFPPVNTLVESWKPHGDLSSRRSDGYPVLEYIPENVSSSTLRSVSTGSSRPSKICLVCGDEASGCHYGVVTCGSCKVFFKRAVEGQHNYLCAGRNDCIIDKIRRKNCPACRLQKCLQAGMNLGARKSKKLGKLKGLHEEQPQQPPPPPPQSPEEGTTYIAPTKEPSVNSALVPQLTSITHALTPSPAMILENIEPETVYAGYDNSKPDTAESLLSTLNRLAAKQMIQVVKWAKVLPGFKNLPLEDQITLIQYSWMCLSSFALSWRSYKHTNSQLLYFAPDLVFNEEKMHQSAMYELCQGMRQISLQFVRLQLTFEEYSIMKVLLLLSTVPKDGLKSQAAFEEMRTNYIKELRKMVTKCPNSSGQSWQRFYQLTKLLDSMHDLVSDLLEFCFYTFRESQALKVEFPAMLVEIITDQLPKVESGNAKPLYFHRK
Description: Binding affinity for rat mineralocorticoid receptor.

The target of the next data set is T4, Progesterone receptor (Homo sapiens, UniProt P06401).
T4 sequence (P06401 whole entry): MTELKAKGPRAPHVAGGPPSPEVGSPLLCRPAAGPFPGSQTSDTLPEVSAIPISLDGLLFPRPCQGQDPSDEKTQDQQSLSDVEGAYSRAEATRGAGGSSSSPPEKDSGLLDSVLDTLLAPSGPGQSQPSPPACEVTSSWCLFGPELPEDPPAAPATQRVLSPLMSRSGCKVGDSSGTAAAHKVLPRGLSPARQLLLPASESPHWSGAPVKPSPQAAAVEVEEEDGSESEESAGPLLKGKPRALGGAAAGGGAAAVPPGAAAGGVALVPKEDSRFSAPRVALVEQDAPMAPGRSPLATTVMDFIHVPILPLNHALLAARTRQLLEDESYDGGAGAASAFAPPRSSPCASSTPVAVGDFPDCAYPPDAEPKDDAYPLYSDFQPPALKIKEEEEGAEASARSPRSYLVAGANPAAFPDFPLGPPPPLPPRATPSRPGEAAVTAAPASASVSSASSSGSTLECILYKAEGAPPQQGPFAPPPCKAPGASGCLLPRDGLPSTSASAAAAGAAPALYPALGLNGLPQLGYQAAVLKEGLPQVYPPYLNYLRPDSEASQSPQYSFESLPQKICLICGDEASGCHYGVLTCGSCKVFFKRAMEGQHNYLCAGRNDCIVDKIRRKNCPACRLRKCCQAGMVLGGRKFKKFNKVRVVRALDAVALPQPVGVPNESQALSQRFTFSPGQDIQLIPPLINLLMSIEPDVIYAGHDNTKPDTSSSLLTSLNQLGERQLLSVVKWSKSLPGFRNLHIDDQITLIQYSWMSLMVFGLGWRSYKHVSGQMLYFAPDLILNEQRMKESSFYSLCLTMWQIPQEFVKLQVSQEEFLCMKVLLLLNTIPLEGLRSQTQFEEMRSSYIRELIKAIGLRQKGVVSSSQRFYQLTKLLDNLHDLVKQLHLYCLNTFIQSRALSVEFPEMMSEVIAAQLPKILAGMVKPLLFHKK
The data set can be described thus: Binding affinity for human progesterone receptor.

Chain of Estrogen receptor beta (Q92731 whole entry): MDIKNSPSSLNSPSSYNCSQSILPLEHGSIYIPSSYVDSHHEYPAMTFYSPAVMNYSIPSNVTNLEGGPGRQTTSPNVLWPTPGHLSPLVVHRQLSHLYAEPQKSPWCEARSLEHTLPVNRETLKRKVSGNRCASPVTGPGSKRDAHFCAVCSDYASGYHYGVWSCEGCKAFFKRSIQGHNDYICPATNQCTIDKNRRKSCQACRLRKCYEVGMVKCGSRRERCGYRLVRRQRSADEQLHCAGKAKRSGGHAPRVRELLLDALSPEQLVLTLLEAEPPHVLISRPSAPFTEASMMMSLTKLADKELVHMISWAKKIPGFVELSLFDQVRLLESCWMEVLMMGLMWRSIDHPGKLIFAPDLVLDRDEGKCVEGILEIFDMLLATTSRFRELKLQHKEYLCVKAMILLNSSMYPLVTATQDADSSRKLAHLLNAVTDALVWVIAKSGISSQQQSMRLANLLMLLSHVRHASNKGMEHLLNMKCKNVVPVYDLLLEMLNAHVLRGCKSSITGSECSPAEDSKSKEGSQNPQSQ

On to `C[C@@H]1C[C@@H](C)OC2(CCC3=Cc4c(cnn4-c4ccc(F)cc4)C[C@@]32C)O1` (stereo in doubt; form 1), for which the EC50 worked out at 45 nM in the data set filed under Mus musculus [1] and 7.5 nM with A549 [2]. Further, the half-inhibitory concentration (IC50) against Glucocorticoid receptor [3] turned out to be 8.4 nM.

In the data set on A549 [4], `C[C@@H]1CCO[C@@]2(CCC3=Cc4c(cnn4-c4ccc(F)cc4)C[C@@]32C)O1` yielded an EC50 of 0.48 nM. The 50% inhibitory concentration (IC50) against Glucocorticoid receptor [3] came to 18 nM.

`C[C@H]1CCO[C@]2(CCC3=Cc4c(cnn4-c4ccc(F)cc4)C[C@@]32C)O1` returned a half-inhibitory concentration (IC50) on Glucocorticoid receptor [3] of 21 nM. The same molecule displayed an EC50 in the data set with A549 [5] of 0.53 nM.

For `C=C[C@H]1OC2(CCC3=Cc4c(cnn4-c4ccc(F)cc4)C[C@@]32C)O[C@@H]1C=C`, the EC50 in the data set filed under Mus musculus [6] amounted to 61 nM; with A549 [2] it was 2.6 nM; in the data set filed under Mus musculus [11], 61 nM. For the same molecule, the IC50 on Estrogen receptor was more than 10000 nM; at Glucocorticoid receptor [7], 8 nM; on Estrogen receptor beta, more than 10000 nM; against Glucocorticoid receptor [3], 8 nM; in data set [14], more than 10000 nM; on Progesterone receptor it was more than 1000 nM. Moreover, the clearance in [8] was 114 mL/min/kg. For the same molecule, the half-life in data set [9] is 2.3 h. Moreover, the Vd in [10] stood at 15.3 L/kg. The molecule also returned a bioavailability in [12] of 14.3%. The molecule also displayed an Inhibition with Mus musculus [13] of 96.8%.
